Measured values: publication PMC10002984, “Dual PTP1B/TC-PTP Inhibitors: Biological Evaluation of 3-(Hydroxymethyl)cinnoline-4(1H)-Ones” (International Journal of Molecular Sciences, 2023)

Legend:
[1] = target: T1, recombinant human PTP1B protein (Homo sapiens, UniProt P18031); experiment: Phosphatase activity assay with DiFMUP, PTP1B inhibition; type: biochemical; conditions: for IC50: DiFMUP 25 µM, 80 ng/mL PTP1B, compounds 0.1–80 μM, M ± SEM (n = 24), read-out: IC50 for the inhibitory effect on PTP1B activity
T1 construct: purchased Abcam ab51277
T1 sequence (P18031 1-321 limits assumed): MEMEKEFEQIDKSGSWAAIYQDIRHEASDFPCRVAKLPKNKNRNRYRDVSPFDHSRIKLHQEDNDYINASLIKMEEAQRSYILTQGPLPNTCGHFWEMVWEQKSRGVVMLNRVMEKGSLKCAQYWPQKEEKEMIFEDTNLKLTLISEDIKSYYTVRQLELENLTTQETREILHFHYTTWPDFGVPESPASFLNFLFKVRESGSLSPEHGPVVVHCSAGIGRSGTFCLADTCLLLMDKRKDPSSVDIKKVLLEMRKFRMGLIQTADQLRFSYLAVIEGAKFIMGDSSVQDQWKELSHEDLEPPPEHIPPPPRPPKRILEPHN
Method: The measurement of the activity of the phosphatases PTP1B and TC-PTP and their inhibition was carried out using 6,8-difluoro-4methylumbelliferyl phosphate (DiFMUP), as previously described. The stock solution of recombinant human PTP1B protein (#ab51277, Abcam, Cambridge, UK), at a concentration of 1 µg/µL, was prepared in 25 mM Tris–HCl (pH 7.5), 20% glycerol, 2 mM β-mercaptoethanol, 1 mm EDTA, and 1 mM DTT, and stored at −20 °C. Active human recombinant TC-PTP protein was purchased from Sigma-Aldrich (#SRP0218, Saint Louis, MO, USA) as the aqueous buffer solution at a concentration of 2.9 mg/mL, and aliquots were stored at −80 °C. The fluorogenic substrate DiFMUP (#D6567, Molecular Probes, Thermo Fisher Scientific, Waltham, MA, USA) was dissolved at a concentration of 10 mM in N,N-dimethylformamide and stored in aliquots at −20 °C. The 6,8-difluoro-7-hydroxy-4-methylcoumarin (DiFMU, #D6566, Molecular Probes, Thermo Fisher Scientific, Waltham, MA, USA) was used as a reference fluorescent standard. For the IC50 determination, the assay was carried out in black flat bottom 96-well plates using a reaction volume of 100 µL. The phosphatases (PTP1B or TC-PTP) were preincubated with the tested compounds (0.1–80 µM) in 50 mM HEPES (pH 6.9), 100 mM NaCl, 1 mM EDTA, 2 mM DTT, 0.1 mg/mL BSA for 5 min at 37 °C. The following concentrations of the compounds were studied: 0.1, 0.2, 0.5, 1, 2, 5, 10, 20, 40, and 80 μM. The reactions were initiated by the addition of the fluorogenic substrate DiFMUP and diluted in the assay buffer. Progress curves for hydrolysis reaction were obtained with 25 µM of DiFMUP for 80 ng/mL PTP1B, and 35 µM of DiFMUP for 80 ng/mL TC-PTP. Fluorescence excitation of hydrolyzed DiFMUP and the fluorescent standard DiFMU was monitored at 355 nm and emission was detected at 460 nm for 6–10 min at 30 s intervals in a Fluoroskan Ascent FL microplate reader (Thermo Electron Corporation, Vantaa, Finland). Initial velocities of the reactions were used to calculate the IC50 values using GraphPad Prism.
The data on food intake, body weight, and biochemical parameters in rats, as well as the PCR data, were analyzed using the IBM SPSS Statistics 22 software (“IBM”, Armonk, NY, USA), and the results are presented as mean ± standard error of the mean (M ± SEM). All differences are considered significant at p < 0.05. The calculation of the IC50 values of the studied inhibitors for the initial velocities of enzymatic reactions (PTP1B, TC-PTP) was carried out using the nonlinear regression analysis with GraphPad Prism 8 (“GraphPad Software, Inc.”, Boston, MA, USA). The statistical analysis was carried out using the Wilcoxon test for pairwise comparison and Dunn’s test for multiple comparisons.

Shp1 gene = experiment: Gene expression in the liver of obese rats (qPCR), Shp1 gene; type: in vivo, rat; conditions: five-day treatment
Method: Further, six groups were formed: control (Con, n = 10), obesity (Ob, n = 10), obese rats with five-day treatment with compounds 1 (Ob + 1, n = 5), 2 (Ob + 2, n = 5), 3 (Ob + 3, n = 10), and 4 (Ob + 4, n = 10). All compounds were administered in DMSO (300 µL) at a daily dose of 7 mg/kg (1 and 2), 8 mg/kg (3), and 10 mg/kg (4) (i.p.), based on the results of the preliminary experiments. The used doses of compounds 1–4, in terms of the number of moles of each compound per kg of animal body weight, were equivalent. Control and obese rats received DMSO in the same volumes (300 µL), instead of the tested compounds. During the five days of the experiment, all animals were transferred to standard food and had free access to food and drinking water. […] The test was carried out on the morning of the next day after the last (fifth) injection of the compounds or DMSO, after a 10 h fast. The rest of the animals (n = 5 in each group) were anesthetized and decapitated on the last day of the experiment. The blood and liver samples were taken to measure blood glucose and hormone levels and gene expression in the liver.
The total RNA was isolated from the liver samples of rats using the “ExtractRNA Reagent” (Evrogen, Moscow, Russia), and the samples containing 1 μg of RNA were transcribed to cDNA using the random oligodeoxynucleotide primers and the “MMLV RT kit” (Evrogen, Russia). The amplification procedure was carried out in the mixture containing 10 ng of reverse transcribed product, 0.4 μM of the forward and reverse primers, and the “qPCRmix-HS SYBR + LowROX kit” (Evrogen, Russia). The amplified signals were detected using the “Applied Biosystems® 7500 Real-Time PCR System” (Life Technologies, Carlsbad, CA, USA, Thermo Fisher Scientific Inc., USA). The primers that were used to assess the expression of genes encoding the phosphatase PTP1B, TC-PTP, and SHP1 and the insulin and leptin receptors are presented in Table 4. The obtained data were calculated with the delta–delta Ct method and expressed as a fold expression, relative to the corresponding control. The expression of the gene encoding 18S RNA was used as an endogenous control.

SMILES: O=c1c(CO)n[nH]c2ccc(Br)cc12 [Compound 4, 6-Bromo-3-(hydroxymethyl)cinnolin-4(1H)-one]
- IC50 [1]: 11 ± 1.34 µM
- expression of the Shp1 gene in the liver (Shp1 gene): did not affect

SMILES: O=c1c(CO)n[nH]c2ccccc12 [Compound 1]
- IC50 [1]: 3.78 ± 0.34 µM
- selectivity for PTP1B compared to that for TC-PTP ([1]; from IC50 values of Table 1): 5–7 fold
- expression of the Shp1 gene in the liver (Shp1 gene): increased

SMILES: O=c1c(CO)n[nH]c2ccc(Cl)cc12 [Compound 3, 6-Chloro-3-(hydroxymethyl)cinnolin-4(1H)-one]
- IC50 [1]: 5.11 ± 0.57 µM
- expression of the Shp1 gene in the liver (Shp1 gene): did not affect
